In brackets after ≈: the same amount, converted by molar mass.
Assays:
[1] = tested on: Enterococcus faecalis; test: Antibacterial activity against t Enterococcus faecalis VRE after 20 hrs by NCCLS-based two-fold broth dilution method; assay type: functional; details: read-out: MIC
[2] = tested on: Mycolicibacterium smegmatis; test: Antibacterial activity against Mycobacterium smegmatis after 20 hrs by NCCLS-based two-fold broth dilution method; assay type: functional
[3] = tested on: Staphylococcus aureus; test: Antibacterial activity against methicillin resistant Staphylococcus aureus after 20 hrs by NCCLS-based two-fold broth dilution method; assay type: functional; details: read-out: MIC
[4] = tested on: Staphylococcus aureus; test: Antibacterial activity against multi drug resistance Staphylococcus aureus after 20 hrs by NCCLS-based two-fold broth dilution method; assay type: functional
[5] = tested on: Staphylococcus aureus; test: Antibacterial activity against Staphylococcus aureus after 20 hrs by NCCLS-based two-fold broth dilution method; assay type: functional
[6] = tested on: Staphylococcus aureus; test: Antibacterial activity against methicillin resistant Staphylococcus aureus SR3637; assay type: functional
[7] = tested on: Pseudomonas aeruginosa; test: Antibacterial activity against Pseudomonas aeruginosa after 20 hrs by NCCLS-based two-fold broth dilution method; assay type: functional
[8] = tested on: Streptococcus pneumoniae; test: Antibacterial activity against Streptococcus pneumoniae after 20 hrs by NCCLS-based two-fold broth dilution method; assay type: functional
[9] = tested on: Enterococcus faecium; test: Antibacterial activity against Enterococcus faecium SR7917 (VRE); assay type: functional
[10] = tested on: Enterococcus faecalis; test: Antibacterial activity against Enterococcus faecalis SR7914 (VRE); assay type: functional
[11] = tested on: Staphylococcus aureus; test: Antibacterial activity against methicillin susceptible Staphylococcus aureus ATCC 29213; assay type: functional
[12] = tested on: Enterococcus faecalis; test: Antibacterial activity against t Enterococcus faecalis after 20 hrs by NCCLS-based two-fold broth dilution method; assay type: functional; details: read-out: MIC
[13] = tested on: Enterococcus faecalis; test: Antibacterial activity against Enterococcus faecalis ATCC 29212; assay type: functional
[14] = tested on: Enterococcus faecium; test: Antibacterial activity against Enterococcus faecium ATCC 19434; assay type: functional
[15] = tested on: Staphylococcus aureus; test: Antibacterial activity against methicillin susceptible Staphylococcus aureus after 20 hrs by NCCLS-based two-fold broth dilution method; assay type: functional; details: read-out: MIC
[16] = tested on: Haemophilus influenzae; test: Antibacterial activity against Haemophilus influenzae after 20 hrs by NCCLS-based two-fold broth dilution method; assay type: functional
[17] = tested on: Pseudomonas aeruginosa; test: Antibacterial activity against Pseudomonas aeruginosa YY165; assay type: functional
[18] = tested on: Enterococcus faecium; test: Antibacterial activity against t Enterococcus faecium after 20 hrs by NCCLS-based two-fold broth dilution method; assay type: functional
[19] = tested on: Haemophilus influenzae; test: Antibacterial activity against Haemophilus influenzae ATCC 10211; assay type: functional
[20] = molecular target: T1, Phospho-N-acetylmuramoyl-pentapeptide-transferase (Bacillus subtilis (strain 168), UniProt Q03521); test: Inhibition of MraY in Bacillus subtilis using UDP-MurNAc-[14C]pentapeptide as substrate by radioactivity scanning assay
T1 sequence (Q03521 whole entry): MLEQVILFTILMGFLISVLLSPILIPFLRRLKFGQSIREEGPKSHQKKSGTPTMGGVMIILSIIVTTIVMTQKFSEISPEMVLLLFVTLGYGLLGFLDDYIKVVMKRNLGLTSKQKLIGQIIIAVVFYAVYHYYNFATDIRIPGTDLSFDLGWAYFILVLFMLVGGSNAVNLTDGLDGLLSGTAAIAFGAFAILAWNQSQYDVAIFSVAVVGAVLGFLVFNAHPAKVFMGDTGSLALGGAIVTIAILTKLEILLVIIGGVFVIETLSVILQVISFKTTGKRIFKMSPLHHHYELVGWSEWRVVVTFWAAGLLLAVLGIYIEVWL

[21] = molecular target: Phospho-N-acetylmuramoyl-pentapeptide-transferase (Escherichia coli, UniProt E2QF15); test: Inhibition of MraY in Escherichia coli
[22] = tested on: Mycolicibacterium vaccae; test: Antibacterial activity against Mycobacterium vaccae; assay type: functional
[23] = tested on: Mycobacterium avium; test: Antibacterial activity against Mycobacterium avium; assay type: functional
[24] = tested on: Mycobacterium tuberculosis; test: Antibacterial activity against Mycobacterium tuberculosis; assay type: functional
[25] = tested on: Mycolicibacterium smegmatis; test: Antibacterial activity against Mycobacterium smegmatis; assay type: functional
[26] = tested on: Mycobacterium intracellulare; test: Antibacterial activity against Mycobacterium intracellulare; assay type: functional

Sequence of Phospho-N-acetylmuramoyl-pentapeptide-transferase (Escherichia coli, UniProt E2QF15) (E2QF15 whole entry): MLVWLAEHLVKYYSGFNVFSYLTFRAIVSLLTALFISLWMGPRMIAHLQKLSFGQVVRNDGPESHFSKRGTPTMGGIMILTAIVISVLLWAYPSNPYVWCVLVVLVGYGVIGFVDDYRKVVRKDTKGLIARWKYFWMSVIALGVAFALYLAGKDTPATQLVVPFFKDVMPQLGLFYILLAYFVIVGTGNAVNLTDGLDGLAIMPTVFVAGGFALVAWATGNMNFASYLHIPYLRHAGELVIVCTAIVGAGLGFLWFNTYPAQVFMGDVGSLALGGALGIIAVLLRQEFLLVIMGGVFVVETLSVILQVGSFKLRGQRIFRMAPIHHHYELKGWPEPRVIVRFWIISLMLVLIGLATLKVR

## CCCCCCCCCCCCCCCC(=O)O[C@H]1CN[C@@H]([C@H](O[C@@H]2O[C@H](CN)[C@@H](O)[C@H]2O)[C@H]2O[C@@H](n3ccc(=O)[nH]c3=O)[C@H](O)[C@@H]2O)C(=O)N(C)[C@@H]1C(=O)O [DESMETHYLPALMITOYLCAPRAZOL]
[1]
  MIC: 12.5 µg/mL (≈ 15.6 µM)
[2]
  MIC: 25 µg/mL (≈ 31.3 µM)
[3]
  MIC: 6.25 to 12.5 µg/mL (≈ 7.81 to 15.6 µM)
[4]
  MIC: 3.13 µg/mL (≈ 3.91 µM)
[5]
  MIC: 1.56 µg/mL (≈ 1.95 µM)

## CCCCCCCCC(CCCCCCCC)C(=O)N[C@@H]1CCN[C@@H]([C@H](O[C@@H]2O[C@H](CN)[C@@H](O)[C@H]2O)[C@H]2O[C@@H](n3ccc(=O)[nH]c3=O)[C@H](O)[C@@H]2O)C1
[6]
  MIC: 8 µg/mL (≈ 10.8 µM)
[7]
  MIC: 32 µg/mL (≈ 43.2 µM)
[1]
  MIC: 4 µg/mL (≈ 5.41 µM)
[8]
  MIC: 16 µg/mL (≈ 21.6 µM)
[9]
  MIC: 8 µg/mL (≈ 10.8 µM)
[10]
  MIC: 4 µg/mL (≈ 5.41 µM)
[3]
  MIC: 8 µg/mL (≈ 10.8 µM)
[11]
  MIC: 4 µg/mL (≈ 5.41 µM)
[12]
  MIC: 4 µg/mL (≈ 5.41 µM)
[13]
  MIC: 4 µg/mL (≈ 5.41 µM)
[14]
  MIC: 8 µg/mL (≈ 10.8 µM)
[15]
  MIC: 4 µg/mL (≈ 5.41 µM)
[16]
  MIC: 16 µg/mL (≈ 21.6 µM)
[17]
  MIC: 16 µg/mL (≈ 21.6 µM)
[18]
  MIC: 8 µg/mL (≈ 10.8 µM)
[19]
  MIC: 32 µg/mL (≈ 43.2 µM)

## NC[C@H]1O[C@@H](O[C@@H](c2cn(Cc3ccc(COc4ccc(C(=O)c5ccccc5)cc4)cc3)nn2)[C@H]2O[C@@H](n3ccc(=O)[nH]c3=O)[C@H](O)[C@@H]2O)[C@H](O)[C@@H]1O
[20]
  IC50: 50 µM

## NC[C@H]1O[C@@H](OC[C@H]2O[C@@H](n3ccc(=O)[nH]c3=O)[C@H](O)[C@@H]2O)[C@H](O)[C@@H]1O
[21]
  IC50: 50 µM

## CCCCCCCCCCCCCCCC(=O)O[C@H]1CN(C)[C@@H]([C@H](O[C@@H]2O[C@H](CN)[C@@H](O)[C@H]2O)[C@H]2O[C@@H](n3ccc(=O)[nH]c3=O)[C@H](O)[C@@H]2O)C(=O)N(C)[C@@H]1C(=O)O [PALMITOYL CAPRAZOL]
[1]
  MIC: 12.5 µg/mL (≈ 15.4 µM)
[2]
  MIC: 6.25 µg/mL (≈ 7.68 µM)
[3]
  MIC: 6.25 µg/mL (≈ 7.68 µM)
[4]
  MIC: 3.13 µg/mL (≈ 3.85 µM)
[5]
  MIC: 1.56 µg/mL (≈ 1.92 µM)

## CCCCCCCCCCCCC[C@@H](CC(=O)O[C@H]1CN(C)[C@@H]([C@H](O[C@@H]2O[C@H](CN)[C@@H](O)[C@H]2O)[C@H]2O[C@@H](n3ccc(=O)[nH]c3=O)[C@H](O)[C@@H]2O)C(=O)N(C)[C@@H]1C(=O)O)OC(=O)C[C@H](C)CC(=O)O[C@@H]1O[C@@H](C)[C@H](OC)[C@@H](OC)[C@H]1OC
[22]
  MIC: 0.2 µg/mL (≈ 0.174 µM)
[23]
  MIC: < 0.025 µg/mL
[24]
  MIC: 1.56 µg/mL (≈ 1.36 µM)
[25]
  MIC: 0.78 to 1.56 µg/mL (≈ 0.68 to 1.36 µM)
[26]
  MIC: 0.78 µg/mL (≈ 0.68 µM)

From ChEMBL document CHEMBL4402510, “Caprazamycins: Promising lead structures acting on a novel antibacterial target MraY” (Eur J Med Chem, 2019)
